The record followed here is US12479847B2 (DANA-FARBER CANCER INSTITUTE, INC., priority 2019, dated 2025).

SMILES strings stand for the structures.

Test in all cases: KINOMEscan (ScanMAX) kinase profiling
What all share (assay type): binding

In test [1] the target is T1, panel of 468 kinases (Homo sapiens, UniProt P50613).
T1 construct: purchased KINOMEscan (ScanMAX) service
As to conditions: CDK7; 1 μM; read-out: % control. Here is the method: (§1) The kinase selectivity of inventive compounds 12, 75, and 77 was evaluated by KINOMEscan®. KINOMEscan® (ScanMAX™) analysis was performed against a near comprehensive panel of 468 kinases. The control percentage (% control) for inventive compounds at 1 μM in DMSO was determined by Equation 1: % control=(inventive compound−positive control)/(negative control−positive control)×100%, Equation 1
(§2) wherein the positive control is a compound with a % control value of 0% relative light units (RLU), and the negative control (i.e., DMSO) has % control value of 100% RLU. The enzyme selectivity in the present invention is defined as follows: inventive compounds are considered active for an enzyme when the observed % control is less than 35% (<35%).

The target of test [2] is T2, panel of 468 kinases (Homo sapiens, UniProt P42336, Q546K).
T2 construct: purchased KINOMEscan (ScanMAX) service
The note with it: PIK3CA(Q546K); 1 μM; read-out: % control. The protocol: as §1, §2

The target in test [3] is T3, panel of 468 kinases (Homo sapiens, UniProt P10721, L576P).
T3 construct: purchased KINOMEscan (ScanMAX) service
As to conditions: KIT(L576P); 1 μM; read-out: % control. The protocol:
as §1, §2

Test [4] concerns the target T4, panel of 468 kinases (Mycobacterium tuberculosis, UniProt P9WI81).
T4 construct: purchased KINOMEscan (ScanMAX) service
As to conditions: read-out: % control. The protocol:
as §1, §2

The target in test [5] is T5, panel of 468 kinases (Homo sapiens, UniProt P53355).
T5 construct: purchased KINOMEscan (ScanMAX) service
As to conditions: DAPK1; 1 μM; read-out: % control. Here is the method: as §1, §2

Test [6] has as its target T6, panel of 468 kinases (Homo sapiens, UniProt P33981).
T6 construct: purchased KINOMEscan (ScanMAX) service
T6 sequence (P33981 1-857): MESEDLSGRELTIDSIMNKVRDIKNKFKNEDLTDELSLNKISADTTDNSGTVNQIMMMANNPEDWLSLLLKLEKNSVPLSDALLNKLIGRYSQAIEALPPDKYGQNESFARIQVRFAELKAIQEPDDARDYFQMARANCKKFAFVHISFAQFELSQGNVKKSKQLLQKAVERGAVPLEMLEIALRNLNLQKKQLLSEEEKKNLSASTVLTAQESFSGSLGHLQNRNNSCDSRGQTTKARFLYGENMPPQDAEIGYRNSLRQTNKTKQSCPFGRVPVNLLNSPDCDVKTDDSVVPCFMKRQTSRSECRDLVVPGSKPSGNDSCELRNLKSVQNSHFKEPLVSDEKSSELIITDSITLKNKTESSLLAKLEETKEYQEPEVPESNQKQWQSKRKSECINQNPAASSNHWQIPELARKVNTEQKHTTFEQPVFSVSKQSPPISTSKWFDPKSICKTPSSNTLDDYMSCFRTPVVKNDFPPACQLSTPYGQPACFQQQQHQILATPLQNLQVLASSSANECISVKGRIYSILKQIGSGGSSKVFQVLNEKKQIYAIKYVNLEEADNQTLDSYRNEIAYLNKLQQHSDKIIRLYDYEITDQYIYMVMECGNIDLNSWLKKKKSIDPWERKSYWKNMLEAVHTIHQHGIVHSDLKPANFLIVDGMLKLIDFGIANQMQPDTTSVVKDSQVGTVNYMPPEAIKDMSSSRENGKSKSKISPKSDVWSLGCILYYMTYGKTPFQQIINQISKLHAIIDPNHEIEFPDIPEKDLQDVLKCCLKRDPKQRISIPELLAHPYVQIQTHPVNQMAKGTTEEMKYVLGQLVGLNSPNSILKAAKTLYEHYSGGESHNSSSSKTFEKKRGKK
The note with it: TTK; 1 μM; read-out: % control. Here is the method:
as §1, §2

Test [7] addresses T7, panel of 468 kinases (Homo sapiens, UniProt P08922).
T7 construct: purchased KINOMEscan (ScanMAX) service
As to conditions: ROS1; 1 μM; read-out: % control. Here is the method: as §1, §2

The target of test [8] is T8, panel of 468 kinases (Homo sapiens, UniProt O15530).
T8 construct: purchased KINOMEscan (ScanMAX) service
T8 sequence (O15530 1-556): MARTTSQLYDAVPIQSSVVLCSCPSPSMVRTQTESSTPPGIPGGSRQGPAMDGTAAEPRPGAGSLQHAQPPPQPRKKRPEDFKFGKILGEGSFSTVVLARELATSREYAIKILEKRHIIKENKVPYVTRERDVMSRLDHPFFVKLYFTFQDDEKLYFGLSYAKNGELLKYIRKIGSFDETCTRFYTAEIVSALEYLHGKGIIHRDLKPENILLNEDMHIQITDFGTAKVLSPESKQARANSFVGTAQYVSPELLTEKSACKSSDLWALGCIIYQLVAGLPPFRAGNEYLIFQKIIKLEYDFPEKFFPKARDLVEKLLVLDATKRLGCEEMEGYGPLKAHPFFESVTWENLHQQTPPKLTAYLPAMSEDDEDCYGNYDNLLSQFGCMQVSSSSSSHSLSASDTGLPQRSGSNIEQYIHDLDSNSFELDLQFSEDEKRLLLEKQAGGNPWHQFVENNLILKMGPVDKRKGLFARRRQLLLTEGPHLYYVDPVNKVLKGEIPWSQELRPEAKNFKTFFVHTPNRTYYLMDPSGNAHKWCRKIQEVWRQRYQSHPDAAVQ
The note with it: PDPK1; 1 μM; read-out: % control. Here is the method:
as §1, §2

For test [9], the target named is T9, panel of 468 kinases (Homo sapiens, UniProt Q9BVS4).
T9 construct: purchased KINOMEscan (ScanMAX) service
As to conditions: RIOK2; 1 μM; read-out: % control. Here is the method:
as §1, §2

T9 sequence (Q9BVS4 whole entry): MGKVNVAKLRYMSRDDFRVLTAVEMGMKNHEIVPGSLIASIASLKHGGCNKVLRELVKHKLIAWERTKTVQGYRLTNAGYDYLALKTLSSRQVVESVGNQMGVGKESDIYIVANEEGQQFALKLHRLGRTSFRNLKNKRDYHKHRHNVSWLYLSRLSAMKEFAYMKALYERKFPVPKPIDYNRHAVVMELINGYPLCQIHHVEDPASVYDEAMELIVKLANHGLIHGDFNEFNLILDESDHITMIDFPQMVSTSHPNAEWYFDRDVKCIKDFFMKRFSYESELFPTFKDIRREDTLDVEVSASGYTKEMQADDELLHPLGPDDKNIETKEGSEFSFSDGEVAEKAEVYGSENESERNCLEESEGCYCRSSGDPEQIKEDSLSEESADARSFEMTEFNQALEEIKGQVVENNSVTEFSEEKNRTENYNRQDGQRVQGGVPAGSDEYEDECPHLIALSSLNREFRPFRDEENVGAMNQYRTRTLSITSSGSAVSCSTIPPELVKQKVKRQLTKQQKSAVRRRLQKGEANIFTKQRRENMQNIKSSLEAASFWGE
T4 sequence (P9WI81 whole entry): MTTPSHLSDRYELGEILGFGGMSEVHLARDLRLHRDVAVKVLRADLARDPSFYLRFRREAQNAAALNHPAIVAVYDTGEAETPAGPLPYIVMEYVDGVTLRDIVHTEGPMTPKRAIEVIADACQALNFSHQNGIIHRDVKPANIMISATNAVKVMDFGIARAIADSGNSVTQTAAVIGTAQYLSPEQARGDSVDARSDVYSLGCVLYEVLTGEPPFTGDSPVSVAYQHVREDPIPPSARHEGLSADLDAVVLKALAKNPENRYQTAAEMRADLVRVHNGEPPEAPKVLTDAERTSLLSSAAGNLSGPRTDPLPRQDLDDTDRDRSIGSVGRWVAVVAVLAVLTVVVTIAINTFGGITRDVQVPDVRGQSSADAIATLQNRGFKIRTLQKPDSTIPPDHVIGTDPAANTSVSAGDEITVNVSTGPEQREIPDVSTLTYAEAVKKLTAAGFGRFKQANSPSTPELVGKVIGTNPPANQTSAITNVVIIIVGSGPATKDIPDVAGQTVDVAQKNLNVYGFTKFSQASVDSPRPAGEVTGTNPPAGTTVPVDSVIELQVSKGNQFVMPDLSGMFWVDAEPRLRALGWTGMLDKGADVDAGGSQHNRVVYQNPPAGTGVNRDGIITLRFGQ
T1 sequence (P50613 whole entry): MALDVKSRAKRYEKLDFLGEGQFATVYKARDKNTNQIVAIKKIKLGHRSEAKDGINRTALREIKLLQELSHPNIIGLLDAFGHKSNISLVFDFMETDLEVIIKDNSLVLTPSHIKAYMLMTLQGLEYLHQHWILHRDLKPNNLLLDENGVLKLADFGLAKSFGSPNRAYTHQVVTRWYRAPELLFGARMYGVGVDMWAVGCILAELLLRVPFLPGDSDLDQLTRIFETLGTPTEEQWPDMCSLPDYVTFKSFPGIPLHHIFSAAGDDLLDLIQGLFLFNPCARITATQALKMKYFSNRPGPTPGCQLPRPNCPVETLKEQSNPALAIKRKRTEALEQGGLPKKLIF
T7 sequence (P08922 28-2347): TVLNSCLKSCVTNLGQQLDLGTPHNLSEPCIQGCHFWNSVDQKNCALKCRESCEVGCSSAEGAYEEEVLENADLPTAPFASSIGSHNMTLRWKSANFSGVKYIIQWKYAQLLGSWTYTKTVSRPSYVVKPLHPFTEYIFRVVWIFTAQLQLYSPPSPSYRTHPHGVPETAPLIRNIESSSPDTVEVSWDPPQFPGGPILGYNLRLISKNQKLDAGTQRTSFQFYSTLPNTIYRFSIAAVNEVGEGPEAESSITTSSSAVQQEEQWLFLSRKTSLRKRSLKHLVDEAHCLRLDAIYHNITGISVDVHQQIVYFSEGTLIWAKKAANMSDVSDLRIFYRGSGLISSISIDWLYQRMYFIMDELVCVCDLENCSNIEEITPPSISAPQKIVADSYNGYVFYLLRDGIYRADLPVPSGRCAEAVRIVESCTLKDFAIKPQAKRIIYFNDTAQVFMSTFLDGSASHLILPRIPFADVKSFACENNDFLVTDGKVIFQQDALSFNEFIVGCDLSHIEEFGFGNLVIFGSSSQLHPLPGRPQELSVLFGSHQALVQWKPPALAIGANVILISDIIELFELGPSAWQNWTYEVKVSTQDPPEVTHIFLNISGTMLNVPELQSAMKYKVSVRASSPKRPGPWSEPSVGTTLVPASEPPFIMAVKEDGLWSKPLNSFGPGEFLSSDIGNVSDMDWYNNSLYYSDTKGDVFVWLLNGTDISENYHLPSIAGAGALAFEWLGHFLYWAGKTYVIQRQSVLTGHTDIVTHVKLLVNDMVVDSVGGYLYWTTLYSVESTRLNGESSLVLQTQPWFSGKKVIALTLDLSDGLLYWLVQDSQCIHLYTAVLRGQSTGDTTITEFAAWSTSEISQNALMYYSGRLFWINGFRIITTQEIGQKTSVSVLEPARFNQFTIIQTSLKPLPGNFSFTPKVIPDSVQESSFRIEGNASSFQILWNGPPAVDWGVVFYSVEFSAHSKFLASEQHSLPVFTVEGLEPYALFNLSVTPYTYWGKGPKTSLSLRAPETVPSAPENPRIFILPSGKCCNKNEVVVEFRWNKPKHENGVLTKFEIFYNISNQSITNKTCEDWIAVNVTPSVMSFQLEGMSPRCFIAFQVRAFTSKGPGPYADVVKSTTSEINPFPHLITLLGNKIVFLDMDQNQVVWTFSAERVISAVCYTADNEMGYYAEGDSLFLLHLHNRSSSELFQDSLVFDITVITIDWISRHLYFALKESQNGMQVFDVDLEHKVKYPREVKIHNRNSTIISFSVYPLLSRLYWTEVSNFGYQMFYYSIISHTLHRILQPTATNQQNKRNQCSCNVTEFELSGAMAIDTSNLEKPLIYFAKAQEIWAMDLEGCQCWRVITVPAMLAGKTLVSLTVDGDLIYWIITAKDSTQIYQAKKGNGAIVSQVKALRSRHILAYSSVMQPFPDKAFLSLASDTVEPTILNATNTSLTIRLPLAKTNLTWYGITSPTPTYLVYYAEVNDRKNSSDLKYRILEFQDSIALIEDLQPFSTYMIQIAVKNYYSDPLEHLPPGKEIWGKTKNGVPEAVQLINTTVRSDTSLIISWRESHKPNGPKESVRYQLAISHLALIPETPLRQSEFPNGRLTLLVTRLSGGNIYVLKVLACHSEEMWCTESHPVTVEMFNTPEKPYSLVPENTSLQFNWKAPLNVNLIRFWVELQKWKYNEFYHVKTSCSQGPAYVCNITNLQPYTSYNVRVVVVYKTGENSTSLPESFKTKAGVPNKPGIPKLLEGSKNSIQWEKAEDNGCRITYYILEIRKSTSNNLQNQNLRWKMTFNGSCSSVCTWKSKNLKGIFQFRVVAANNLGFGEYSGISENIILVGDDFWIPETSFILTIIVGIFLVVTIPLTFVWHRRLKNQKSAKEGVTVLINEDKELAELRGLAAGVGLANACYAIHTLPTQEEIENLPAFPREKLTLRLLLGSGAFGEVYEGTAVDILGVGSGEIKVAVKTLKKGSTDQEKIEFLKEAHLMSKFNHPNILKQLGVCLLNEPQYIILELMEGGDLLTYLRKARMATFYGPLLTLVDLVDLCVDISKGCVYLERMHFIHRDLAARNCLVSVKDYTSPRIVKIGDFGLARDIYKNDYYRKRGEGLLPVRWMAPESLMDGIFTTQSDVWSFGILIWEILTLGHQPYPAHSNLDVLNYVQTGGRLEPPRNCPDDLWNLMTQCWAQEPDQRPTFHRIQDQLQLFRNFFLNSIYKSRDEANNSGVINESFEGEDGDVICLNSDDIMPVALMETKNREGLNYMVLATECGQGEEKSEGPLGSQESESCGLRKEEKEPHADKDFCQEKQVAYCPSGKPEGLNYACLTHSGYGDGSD
T2 sequence (P42336 whole entry Q546K): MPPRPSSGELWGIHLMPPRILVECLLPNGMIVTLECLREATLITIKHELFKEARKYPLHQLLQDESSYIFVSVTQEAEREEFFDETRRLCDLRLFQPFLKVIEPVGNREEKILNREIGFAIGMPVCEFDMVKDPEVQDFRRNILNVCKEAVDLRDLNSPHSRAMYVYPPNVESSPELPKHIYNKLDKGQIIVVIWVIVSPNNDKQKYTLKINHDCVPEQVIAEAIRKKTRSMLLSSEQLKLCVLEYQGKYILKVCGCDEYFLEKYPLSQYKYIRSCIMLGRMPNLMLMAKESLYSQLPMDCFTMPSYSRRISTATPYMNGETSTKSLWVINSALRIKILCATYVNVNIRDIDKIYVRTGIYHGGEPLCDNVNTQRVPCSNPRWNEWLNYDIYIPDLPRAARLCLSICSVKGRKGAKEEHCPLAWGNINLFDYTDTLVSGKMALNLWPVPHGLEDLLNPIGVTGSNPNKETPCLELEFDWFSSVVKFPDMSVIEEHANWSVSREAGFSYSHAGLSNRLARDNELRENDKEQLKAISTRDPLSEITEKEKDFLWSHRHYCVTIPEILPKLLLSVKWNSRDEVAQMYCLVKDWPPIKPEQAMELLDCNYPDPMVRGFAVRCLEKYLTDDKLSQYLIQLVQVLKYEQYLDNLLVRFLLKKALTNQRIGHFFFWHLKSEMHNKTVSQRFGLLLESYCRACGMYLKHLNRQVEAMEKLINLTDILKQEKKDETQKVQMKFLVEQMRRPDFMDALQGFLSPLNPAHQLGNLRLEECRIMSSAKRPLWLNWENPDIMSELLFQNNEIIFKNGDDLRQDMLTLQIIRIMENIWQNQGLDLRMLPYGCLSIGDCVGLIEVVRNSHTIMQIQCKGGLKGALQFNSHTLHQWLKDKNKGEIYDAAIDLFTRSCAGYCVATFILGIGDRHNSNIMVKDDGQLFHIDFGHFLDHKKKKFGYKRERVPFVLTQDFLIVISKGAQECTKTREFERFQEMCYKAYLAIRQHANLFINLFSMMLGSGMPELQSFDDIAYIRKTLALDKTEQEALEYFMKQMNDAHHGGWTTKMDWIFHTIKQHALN

For the compound `CNc1nc(Nc2ccc(S(=O)(=O)N3CCC(N4CCOCC4)CC3)cc2OC)nc2[nH]cc(Cl)c12` [Compound 12, 5-chloro-N2-(2-methoxy-4-((4-morpholinopiperidin-1-yl)sulfonyl)phenyl)-N4-methyl-7H-pyrrolo[2,3-d]pyrimidine-2,4-diamine], the remaining binding at 1 µM was found to be 98% at panel of 468 kinases [1]; 50% on panel of 468 kinases [2]; 97% on panel of 468 kinases [3]; 93% at panel of 468 kinases [4]; 43% at panel of 468 kinases [5]; 1% on panel of 468 kinases [6]. Further, the results for the remaining binding at 1 µM on panel of 468 kinases [7], at panel of 468 kinases [8] and on panel of 468 kinases [9] were 85%, 95% and 94%, respectively.
As for `CNc1nc(Nc2ccc(P3(=O)CCN(C4CCOCC4)CC3)cc2OC)nc2[nH]cc(Cl)c12` [Compound 77, 4-(4-((5-chloro-4-(methylamino)-7H-pyrrolo[2,3-d]pyrimidin-2-yl)amino)-3-methoxyphenyl)-1-(tetrahydro-2H-pyran-4-yl)-1,4-azaphosphinane 4-oxide], the remaining binding at 1 µM at panel of 468 kinases [1] is 86%; on panel of 468 kinases [2], 46%; on panel of 468 kinases [3], 100%; on panel of 468 kinases [4] it was 100%; at panel of 468 kinases [5] it was 8.3%; on panel of 468 kinases [6], 0.5%. Besides, the remaining binding at 1 µM was 54% on panel of 468 kinases [7], 100% at panel of 468 kinases [8] and 78% on panel of 468 kinases [9].
As for `CNc1nc(Nc2ccc(C(=O)N3CCC(N4CCOCC4)CC3)c3c2OCO3)nc2[nH]cc(Cl)c12` [Compound 75, (7-((5-chloro-4-(methylamino)-7H-pyrrolo[2,3-d]pyrimidin-2-yl)amino)benzo[d][1,3]dioxol-4-yl)(4-morpholinopiperidin-1-yl)methanone], the remaining binding at 1 µM at panel of 468 kinases [1] was determined as 21%; on panel of 468 kinases [2], 65%; at panel of 468 kinases [3], 36%; on panel of 468 kinases [4], 68%; on panel of 468 kinases [5], 14%; on panel of 468 kinases [6], 0.6%. Also, the remaining binding at 1 µM was determined as 86% on panel of 468 kinases [7], 98% at panel of 468 kinases [8] and 53% at panel of 468 kinases [9].
